{
  "source": "paper PMC9973354",
  "about": "(mBio, 2022)",
  "test_system": "PA14 ΔfpvA ΔfpvB pHERD20T-fpvA",
  "experiment": "Checkerboard assay TS and siderophores, FpvA expressed",
  "format": "cell-based, Pseudomonas aeruginosa",
  "conditions": "10:90 + 2% arabinose",
  "description": "We investigated this hypothesis by treating the ΔfpvA ΔfpvB mutant complemented with fpvA or fpvB with TS and pyoverdine-Fe^3+. If pyoverdine competes with TS for the same binding site in the transporter, a reduction in TS susceptibility would be expected, as competition would decrease entry of the antibiotic into the cell. TS susceptibility decreased >8-fold with increasing concentrations of pyoverdine-Fe^3+ when FpvA was expressed (see Fig. S2A in the supplemental material).\nSupplementary file : FIG S2 Checkerboard assays of the PA14 ΔfpvA ΔfpvB strain complemented with fpvA and fpvB in trans with TS and siderophores. […] Checkerboards of the PA14 ΔfpvA ΔfpvB pHERD20T-fpvB strain with TS and enterobactin (G), ferrioxamine E (H), and arthrobactin (I). Results are averaged from three independent biological replicates. Cells in the assay were grown in 10:90 + 2% arabinose. Download FIG S2, EPS file, 2.2 MB.\nCheckerboards (8 rows by 8 columns) were conducted as previously described in a 96-well plate (Nunc) ([13], [14]). TS at 75× the final concentration dissolved in DMSO was added in columns from bottom to top in increasing concentrations. Siderophores at 75× the final concentration dissolved in DSMO were added from in rows from left to right in increasing concentrations. Four columns were used for vehicle controls (DMSO) and sterile controls. […] Plates were sealed to prevent evaporation and incubated at 37°C overnight in a shaking incubator (200 rpm). The next day, the OD600 was determined with a plate reader (Thermo Scientific) and normalized to percent of growth of the vehicle control (DMSO) after subtracting the OD600 from blank media.",
  "data": [
    {"smiles": "O=C(N[C@H]1COC(=O)[C@@H](NC(=O)c2cccc(O)c2O)COC(=O)[C@@H](NC(=O)c2cccc(O)c2O)COC1=O)c1cccc(O)c1O", "note": "[enterobactin]", "values": [
      {"measurement": "effect of siderophore on TS susceptibility", "value": "None of those siderophores reduced TS susceptibility"}
    ]},
    {"smiles": "CC(=O)N(O)CCCCCNC(=O)CC(O)(CC(=O)NCCCCCN(O)C(C)=O)C(=O)O", "note": "[arthrobactin]", "values": [
      {"measurement": "effect of siderophore on TS susceptibility", "value": "None of those siderophores reduced TS susceptibility"}
    ]}
  ]
}
